Laboratory results as given in patent publication US9206200B2, “N-linked lactam M1 receptor positive allosteric mogulators” (Merck Sharp & Dohme Corp., priority 2011, dated 2015).
Like-named read-outs stand apart in the source and are kept apart here.

Biological target: T1, acetylcholine muscarinic M1 receptor (Homo sapiens, UniProt P11229)
T1 construct: expressed in transfected cells; host or cells: CHOnfat cells (CHO cells with an NFAT reporter) expressing hM1, kept under Geneticin selection
T1 sequence (P11229 1-460): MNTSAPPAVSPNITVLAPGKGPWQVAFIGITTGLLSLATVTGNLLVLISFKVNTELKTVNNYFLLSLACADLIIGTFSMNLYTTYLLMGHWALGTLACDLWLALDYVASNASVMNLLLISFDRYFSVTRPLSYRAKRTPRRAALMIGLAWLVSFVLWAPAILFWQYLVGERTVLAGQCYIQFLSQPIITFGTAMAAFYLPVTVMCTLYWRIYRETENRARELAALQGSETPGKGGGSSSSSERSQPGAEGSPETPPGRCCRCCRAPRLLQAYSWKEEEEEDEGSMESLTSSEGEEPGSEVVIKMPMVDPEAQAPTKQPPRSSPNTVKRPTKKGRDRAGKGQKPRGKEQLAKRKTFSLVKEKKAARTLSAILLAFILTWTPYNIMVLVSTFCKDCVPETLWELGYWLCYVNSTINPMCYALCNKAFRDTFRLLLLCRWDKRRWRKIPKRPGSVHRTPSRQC
Experiment: muscarinic FLIPR assay: intracellular calcium in CHOnfat/hM1 cells, potentiation of EC20 acetylcholine
Format: cell-based
Conditions: Table 2, CHOnfat/hM1 cells, FLIPR, EC20 acetylcholine (3 nM final)
Method in brief: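 CHOnfat cells stably expressing human M1, Fluo-4AM-loaded, in HBSS with 20 mM HEPES, 2.5 mM probenecid, 1% BSA. Compounds preincubated 4 min (printed "4 mM") before an EC20 acetylcholine challenge (3 nM final). FLIPR intracellular Ca²⁺ signal compared with 3 nM acetylcholine alone to detect potentiation.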

SMILES	EC50 (read-out: M1 Pot.) [nM]	EC50 (M1 Pot.) [nM]
CCN(CC)Cc1cc2c(c3ncccc13)CN(C1CCCCC1O)C2=O (stereo not drawn) [Example 88, 5-[(diethylamino)methyl]-8-(2-hydroxycyclohexyl)-8,9-dihydro-7H-pyrrolo[3,4-h]quinolin-7-one]	4000	–
O=C1c2cc(CN3CCC(O)CC3)c3cccnc3c2CN1C1CCCCC1O (stereo not drawn) [Example 89, 8-(2-hydroxycyclohexyl)-5-[(4-hydroxypiperidin-1-yl)methyl]-8,9-dihydro-7H-pyrrolo[3,4-h]quinolin-7-one]	290	–
O=C1c2cc(CN3CCC(C4CC4)CC3)c3cccnc3c2CN1C1CCCCC1O (stereo not drawn) [Example 90, 5-[(4-cyclopropylpiperidin-1-yl)methyl]-8-(2-hydroxycyclohexyl)-8,9-dihydro-7H-pyrrolo[3,4-h]quinolin-7-one]	1200	–
O=C1c2cc(CN3CCC(F)CC3)c3cccnc3c2CN1C1CCCCC1O (stereo not drawn) [Example 91, 5-[(4-fluoropiperidin-1-yl)methyl]-8-(2-hydroxycyclohexyl)-8,9-dihydro-7H-pyrrolo[3,4-h]quinolin-7-one]	88	–
N#CC1CCN(Cc2cc3c(c4ncccc24)CN([C@H]2CCCC[C@@H]2O)C3=O)CC1 [Example 92, 1-({8-[(1S,2S)-2-hydroxycyclohexyl]-7-oxo-8,9-dihydro-7H-pyrrolo[3,4-h]quinolin-5-yl}methyl)piperidine-4-carbonitrile]	72	–
CC1c2c(cc(CN3CCC(F)CC3)c3cccnc23)C(=O)N1[C@H]1CCCC[C@@H]1O (stereo partly drawn) [Example 93, 5-[(4-fluoropiperidin-1-yl)methyl]-8-[(1S,2S)-2-hydroxycyclohexyl]-9-methyl-8,9-dihydro-7H-pyrrolo[3,4-h]quinolin-7-one]	70	–
N#CC1CCN(Cc2cc3c(c4ncccc24)CN([C@H]2CCCC[C@@H]2O)C3=O)CC1 [Example 94, 1-({8-[(1S,2S)-2-hydroxycyclohexyl]-7-oxo-8,9-dihydro-7H-pyrrolo[3,4-h]quinolin-5-yl}methyl)piperidine-4-carbonitrile]	51	–
O=C1c2cc(CN3CCC4(CC3)COc3ccccc34)c3cccnc3c2CN1C1CCCCC1O (stereo not drawn) [Example 95, 8-(2-hydroxycyclohexyl)-5-(1′H-spiro[1-benzofuran-3,4′-piperidin]-1′-ylmethyl)-8,9-dihydro-7H-pyrrolo[3,4-h]quinolin-7-one]	290	–
O=C1c2cc(CN3CCCC3)c3cccnc3c2CN1C1CCCCC1O (stereo not drawn) [Example 97, 8-(2-hydroxycyclohexyl)-5-(pyrrolidin-1-ylmethyl)-8,9-dihydro-7H-pyrrolo[3,4-h]quinolin-7-one]	5200	–
O=C1c2cc(CN3CCC(F)(F)C3)c3cccnc3c2CN1C1CCCCC1O (stereo not drawn) [Example 98, 5-[(3,3-difluoropyrrolidin-1-yl)methyl]-8-(2-hydroxycyclohexyl)-8,9-dihydro-7H-pyrrolo[3,4-h]quinolin-7-one]	151	–
O=C1c2cc(CN3CCOCC3)c3cccnc3c2CN1C1CCCCC1O (stereo not drawn) [Example 99, 8-(2-hydroxycyclohexyl)-5-(morpholin-4-ylmethyl)-8,9-dihydro-7H-pyrrolo[3,4-h]quinolin-7-one]	150	–
CC1(C)CCN(Cc2cc3c(c4ncccc24)CN(C2CCCCC2O)C3=O)CC1 (stereo not drawn) [Example 100, 5-[(4,4-dimethylpiperidin-1-yl)methyl]-8-(2-hydroxycyclohexyl)-8,9-dihydro-7H-pyrrolo[3,4-h]quinolin-7-one]	430	–
CC1(O)CCN(Cc2cc3c(c4ncccc24)CN(C2CCCCC2O)C3=O)CC1 (stereo not drawn) [Example 101, 8-(2-hydroxycyclohexyl)-5-[(4-hydroxy-4-methylpiperidin-1-yl)methyl]-8,9-dihydro-7H-pyrrolo[3,4-h]quinolin-7-one]	930	–
CC1(F)CCN(Cc2cc3c(c4ncccc24)CN([C@H]2CCCC[C@@H]2O)C3=O)CC1 [Example 102, 5-[(4-fluoro-4-methylpiperidin-1-yl)methyl]-8-[(1S,2S)-2-hydroxycyclohexyl]-8,9-dihydro-7H-pyrrolo[3,4-h]quinolin-7-one]	250	–
C#CC1(F)CCN(Cc2cc3c(c4ncccc24)CN([C@H]2CCCC[C@@H]2O)C3=O)CC1 [Example 103, 5-[(4-ethynyl-4-fluoropiperidin-1-yl)methyl]-8-[(1S,2S)-2-hydroxycyclohexyl]-8,9-dihydro-7H-pyrrolo[3,4-h]quinolin-7-one]	11	–
CC1c2c(cc(CN3CCC(F)(F)CC3)c3cccnc23)C(=O)N1[C@@H]1CCCC[C@@H]1O (stereo partly drawn) [Example 104, 5-[(4,4-difluoropiperidin-1-yl)methyl]-8-[(1R,2S)-2-hydroxycyclohexyl]-9-methyl-8,9-dihydro-7H-pyrrolo[3,4-h]quinolin-7-one]	15	–
CCC1c2c(cc(CN3CCC(F)(F)CC3)c3cccnc23)C(=O)N1[C@@H]1CCCC[C@@H]1O (stereo partly drawn) [Example 105, 5-[(4,4-difluoropiperidin-1-yl)methyl]-9-ethyl-8-[(1R,2S)-2-hydroxycyclohexyl]-8,9-dihydro-7H-pyrrolo[3,4-h]quinolin-7-one]	9.9	–
CC1c2c(cc(CN3CCC(F)(F)CC3)c3cccnc23)C(=O)N1[C@@H]1COCC[C@@H]1O (stereo partly drawn) [Example 106, 1,5-anhydro-2,4-dideoxy-4-{5-[(4,4-difluoropiperidin-1-yl)methyl]-9-methyl-7-oxo-7,9-dihydro-8H-pyrrolo[3,4-h]quinolin-8-yl}-D-erythro-pentitol]	110	–
CC1c2c(cc(CN3CCC(F)(F)CC3)c3cccnc23)C(=O)N1[C@@H]1CCOC[C@@H]1O (stereo partly drawn) [Example 107, 1,5-anhydro-3,4-dideoxy-3-{5-[(4,4-difluoropiperidin-1-yl)methyl]-9-methyl-7-oxo-7,9-dihydro-8H-pyrrolo[3,4-h]quinolin-8-yl}-D-erythro-pentitol]	12	–
O=C1c2cc(CN3CCC(F)(F)CC3)c3cccnc3c2CN1C1CCCCC1O (stereo not drawn) [Example 116, 5-[(4,4-difluoropiperidin-1-yl)methyl]-8-(2-hydroxycyclohexyl)-8,9-dihydro-7H-pyrrolo[3,4-h]quinolin-7-one]	21	–
CN(C)C(=O)Oc1cccc(N2Cc3c(cc(CN4CCC(F)(C#N)CC4)c4cccnc34)C2=O)c1 [Example 129, 3-{5-[(4-cyano-4-fluoropiperidin-1-yl)methyl]-7-oxo-7,9-dihydro-8H-pyrrolo[3,4-h]quinolin-8-yl}phenyl dimethyl carbamate]	–	2170

Continued, in another order:

EC50 (read-out: M1 Pot.) [nM]	SMILES	EC50 (M1 Pot.) [nM]
38	N#CC1(F)CCN(Cc2cc3c(c4ncccc24)CN([C@H]2CCCC[C@@H]2O)C3=O)CC1 [Example 117, 4-fluoro-1-({8-[(1S,2S)-2-hydroxycyclohexyl]-7-oxo-8,9-dihydro-7H-pyrrolo[3,4-h]quinolin-5-yl}methyl)piperidine-4-carbonitrile]	–
21	CCC1c2c(cc(CN3CCC(F)(C#N)CC3)c3cccnc23)C(=O)N1[C@@H]1CCCC[C@@H]1O (stereo partly drawn) [Example 120, 1-({9-ethyl-8-[(1R,2S)-2-hydroxycyclohexyl]-7-oxo-8,9-dihydro-7H-pyrrolo[3,4-h]quinolin-5-yl}methyl)-4-fluoropiperidine-4-carbonitrile]	–
108	O=C1c2cc(CN3CCCC(F)C3)c3cccnc3c2CN1C1CCCCC1O (stereo not drawn) [Example 121, 5-[(3-fluoropiperidin-1-yl)methyl]-8-(2-hydroxycyclohexyl)-8,9-dihydro-7H-pyrrolo[3,4-h]quinolin-7-one]	–
86	O=C1c2cc(CN3CCCC(F)(F)C3)c3cccnc3c2CN1C1CCCCC1O (stereo not drawn) [Example 122, 5-[(3,3-difluoropiperidin-1-yl)methyl]-8-(2-hydroxycyclohexyl)-8,9-dihydro-7H-pyrrolo[3,4-h]quinolin-7-one]	–
97	O=C1c2cc(CN3CCC(C(F)(F)F)CC3)c3cccnc3c2CN1C1CCCCC1O (stereo not drawn) [Example 123, 8-(2-hydroxycyclohexyl)-5-{[4-(trifluoromethyl)piperidin-1-yl]methyl}-8,9-dihydro-7H-pyrrolo[3,4-h]quinolin-7-one]	–
44	C#CC1CCN(Cc2cc3c(c4ncccc24)CN(C2CCCCC2O)C3=O)CC1 (stereo not drawn) [Example 124, 5-[(4-ethynylpiperidin-1-yl)methyl]-8-(2-hydroxycyclohexyl)-8,9-dihydro-7H-pyrrolo[3,4-h]quinolin-7-one]	–
130	CCCC#CC1(F)CCN(Cc2cc3c(c4ncccc24)CN([C@H]2CCCC[C@@H]2O)C3=O)CC1 [Example 125, 5-[(4-fluoro-4-pent-1-yn-1-ylpiperidin-1-yl)methyl]-8-[(1S,2S)-2-hydroxycyclohexyl]-8,9-dihydro-7H-pyrrolo[3,4-h]quinolin-7-one]	–
44	N#CC1(F)CCN(Cc2cc3c(c4ncccc24)CN(c2cccc(O)c2)C3=O)CC1 [Example 127, 4-fluoro-1-{[8-(3-hydroxyphenyl)-7-oxo-8,9-dihydro-7H-pyrrolo[3,4-h]quinolin-5-yl]methyl}piperidine-4-carbonitrile]	–
843	C#CC1(F)CCN(Cc2cc3c(c4ncccc24)CN(c2cccc(O)c2)C3=O)CC1 [Example 128, 5-[(4-ethynyl-4-fluoropiperidin-1-yl)methyl]-8-(3-hydroxyphenyl)-8,9-dihydro-7H-pyrrolo[3,4-h]quinolin-7-one]	–
